pKi: −log10 of the molar value.

The target of assay [1] is T1, human D3 dopamine receptor (Homo sapiens, UniProt P35462).
T1 construct: expressed in transfected cells; host or cells: HEK-293 EBNA cells, transient transfection; membrane preparation
Put plainly: Radioligand binding ([3H]-spiperone) to cloned human D3 receptor, HEK-293 EBNA cell membranes. Conditions: 0.5 nM [3H]-spiperone, 1 h at RT, Cheng-Prusoff. As to the method: The ability of the compounds to bind to the 5-HT2A, D3 and D2 receptors was determined using radioligand binding to cloned receptors selectively expressed in HEK-293 EBNA cells.
(§1) Membrane Preparation for Human D2, Human D3 and Human 5-HT2A Receptors
(§2) HEK-293 EBNA cells were transiently transfected with expression plasmids encoding for the human D2 or D3 dopamine- or for the human 5-HT2A serotonin receptor, respectively. The cells were harvested 48 h post-transfection, washed three times with cold PBS and stored at −80° C. prior to use. The pellet was suspended in cold 50 mM Tris-HCl buffer containing 10 mM EDTA (pH 7.4) and homogenized with a Polytron (Kinematica AG, Basel, Switzerland) for 20-30 sec at 12.000 rpm. After centrifugation at 48.000×g for 30 min at 4° C., the pellet was resuspended in cold 10 mM Tris-HCl buffer containing 0.1 mM EDTA (pH 7.4), homogenized, and centrifuged as above. This pellet was further resuspended in a smaller volume of ice cold 10 mM Tris-HCl buffer containing 0.1 mM EDTA (pH 7.4) and homogenized with a Polytron for 20-30 sec at 12.000 rpm. The protein content of this homogenate was determined with the Bio-Rad (Bradford) Protein Assay (Biorad Laboratories GmbH, München, Germany) according to the instructions of the manufacturer using gamma globulin as the standard. This homogenate was stored at −80° C. in aliquots and thawed immediately prior to use.
(§3) Radioligand Binding Assay Conditions
(§4) Aliquots of membrane preparations were thawed at RT, resuspended in assay buffer (D2, D3: 50 mM Tris-HCl, 120 mM NaCl, 5 mM MgCl2, 1 mM EDTA, 5 mM KCl, 1.5 mM CaCl2, pH=7.4; 5-HT2A: 50 mM Tris-HCl, 10 mM MgCl2, 1 mM EGTA, pH=7.4), homogenized with a Polytron for 20-30 sec at 12.000 rpm and adjusted to a final concentration of approximately 7.5 μg protein/well (D2, D3) and 15 μg protein/well (5-HT2A), respectively.
(§5) The binding affinity (Ki) of the compounds was determined using radioligand binding. Membranes were incubated in a total volume of 200 μl with a fixed concentration of radioligand (final concentration approximately 0.7 nM [^3H]-spiperone for D2, 0.5 nM [^3H]-spiperone for D3, and 1.1 nM [^3H]-ketanserin for 5-HT2A) and ten concentrations of test compound in ranging between 10 μM-0.1 nM for 1 h at RT. At the end of the incubation, the reaction mixtures were filtered on to unifilter 96-well white microplates with bonded GF/C filters (Packard BioScience, Zürich, Switzerland; preincubated for 1 h in 0.1% polyethylenimine (PEI) in assay buffer) with a Filtermate 196 harvester (Packard BioScience) and washed 3 times with cold assay buffer. The nonspecific binding was determined with equally composed reaction mixtures in the presence of 10 μM unlabeled spiperone. Per well 45 μl of Microscint 40 (Perkin Elmer, Schwerzenbach, Switzerland) was added, plates for sealed, shaken for 20 min and counted for 3 min on a Topcount Microplate Scintillation Counter (Canberra Packard SA, Zürich, Switzerland) with quenching correction.
(§6) The CPM value for each duplicate of a concentration of competing compound was averaged (yl), then the % specific binding was calculated according to the equation (((yl-non-specific)/(total binding-non-specific))×100). Graphs were plotted with the % specific binding using XLfit, a curve fitting program that iteratively plots the data using Levenburg Marquardt algorithm. The single site competition analysis equation used was y=A+((B−A)/(1+((x/C)^D))), where y is the % specific binding, A is the minimum y, B is the maximum y, C is the IC50, x is the log10 of the concentration of the competing compound and D is the slope of the curve (the Hill Coefficient). […] The affinity constant (Ki) was calculated using the Cheng-Prusoff equation Ki=(IC50/1+([L]/Kd), where [L] is the concentration of radioligand and Kd is the dissociation constant of the radioligand at the receptor as determined by the saturation isotherm.

For assay [2], the target named is T2, human 5-HT2A serotonin receptor (Homo sapiens, UniProt P28223).
T2 construct: expressed in transfected cells; host or cells: HEK-293 EBNA cells, transient transfection; membrane preparation
In words: Radioligand binding ([3H]-ketanserin) to cloned human 5-HT2A receptor, HEK-293 EBNA cell membranes. The following applies: 1.1 nM [3H]-ketanserin, 1 h at RT, Cheng-Prusoff. As to the method: as §1
as §2, with “The” for “HEK-293 EBNA cells were transiently transfected with expression plasmids encoding for the human D2 or D3 dopamine- or for the human 5-HT2A serotonin receptor, respectively. The”
as §3, §4
The binding affinity (Ki) of the compounds was determined using radioligand binding. […] The nonspecific binding was determined with equally composed reaction mixtures in the presence of 10 μM unlabeled spiperone. Per well 45 μl of Microscint 40 (Perkin Elmer, Schwerzenbach, Switzerland) was added, plates for sealed, shaken for 20 min and counted for 3 min on a Topcount Microplate Scintillation Counter (Canberra Packard SA, Zürich, Switzerland) with quenching correction.
as §6

Assay [3] addresses T3, human D2 dopamine receptor (Homo sapiens, UniProt P14416).
T3 construct: expressed in transfected cells; host or cells: HEK-293 EBNA cells, transient transfection; membrane preparation
In words: Radioligand binding ([3H]-spiperone) to cloned human D2 receptor, HEK-293 EBNA cell membranes. Conditions: 0.7 nM [3H]-spiperone, 1 h at RT, Cheng-Prusoff. Here is the method: as §1, §2, §3, §4, §5, §6

T2 sequence (P28223 whole entry): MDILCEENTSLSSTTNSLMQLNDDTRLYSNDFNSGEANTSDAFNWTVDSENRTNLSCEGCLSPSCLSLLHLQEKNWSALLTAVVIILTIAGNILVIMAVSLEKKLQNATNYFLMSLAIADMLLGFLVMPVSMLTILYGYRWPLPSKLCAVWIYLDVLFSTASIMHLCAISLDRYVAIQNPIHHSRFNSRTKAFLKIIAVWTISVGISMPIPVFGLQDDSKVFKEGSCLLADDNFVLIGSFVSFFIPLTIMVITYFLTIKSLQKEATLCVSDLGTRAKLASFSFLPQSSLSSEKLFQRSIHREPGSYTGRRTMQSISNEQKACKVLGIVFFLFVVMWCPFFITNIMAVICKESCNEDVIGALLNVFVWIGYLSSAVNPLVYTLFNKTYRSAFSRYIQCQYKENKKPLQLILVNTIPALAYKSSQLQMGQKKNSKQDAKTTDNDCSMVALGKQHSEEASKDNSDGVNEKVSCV
T3 sequence (P14416 whole entry): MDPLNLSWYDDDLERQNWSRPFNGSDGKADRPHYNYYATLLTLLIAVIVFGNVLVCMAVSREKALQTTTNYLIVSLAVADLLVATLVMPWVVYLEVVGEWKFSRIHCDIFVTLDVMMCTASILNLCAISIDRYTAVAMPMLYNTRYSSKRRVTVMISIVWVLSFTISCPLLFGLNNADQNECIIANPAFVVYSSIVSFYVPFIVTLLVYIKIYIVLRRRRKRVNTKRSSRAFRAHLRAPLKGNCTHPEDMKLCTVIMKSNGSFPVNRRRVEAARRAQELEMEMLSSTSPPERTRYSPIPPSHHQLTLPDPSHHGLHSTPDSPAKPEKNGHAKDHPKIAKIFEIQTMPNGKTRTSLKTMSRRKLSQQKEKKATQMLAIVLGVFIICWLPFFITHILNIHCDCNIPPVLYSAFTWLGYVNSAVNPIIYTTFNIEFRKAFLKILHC
T1 sequence (P35462 whole entry): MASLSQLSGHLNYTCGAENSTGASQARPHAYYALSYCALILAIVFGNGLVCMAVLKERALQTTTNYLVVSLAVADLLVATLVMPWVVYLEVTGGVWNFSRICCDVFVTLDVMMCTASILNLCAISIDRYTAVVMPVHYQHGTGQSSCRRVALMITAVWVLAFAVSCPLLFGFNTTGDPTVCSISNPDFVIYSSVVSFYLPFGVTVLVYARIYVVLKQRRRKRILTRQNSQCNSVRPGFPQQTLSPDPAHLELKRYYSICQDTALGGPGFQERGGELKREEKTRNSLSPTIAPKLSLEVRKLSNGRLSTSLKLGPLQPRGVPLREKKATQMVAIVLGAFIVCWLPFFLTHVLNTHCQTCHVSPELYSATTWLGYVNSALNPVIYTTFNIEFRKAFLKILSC

With `CCO[C@H]1CC[C@H](CC(=O)N[C@H]2CC[C@H](CCN3CCC(C(=O)c4ccc(F)cc4)CC3)CC2)C1` (racemic) [Example 18, rac-2-(trans-3-Ethoxy-cyclopentyl)-N-trans-(4-{2-[4-(4-fluoro-benzoyl)-piperidin-1-yl]-ethyl}-cyclohexyl)-acetamide], the negative logarithm of the Ki (pKi) is 7.38 in assay [1], 7.55 in assay [2] and 5.71 in assay [3].

As to `CO[C@@H]1CCC[C@@H](CC(=O)N[C@H]2CC[C@H](CCN3CCC(C(=O)c4ccc(F)cc4)CC3)CC2)C1` (single isomer, unassigned) [Example 16, N-trans (4-{2-[4-(4-Fluoro-benzoyl)-piperidin-1-yl]-ethyl}-cyclohexyl)-2-((1R,3R)-3-methoxy-cyclohexyl)-acetamide or N-trans (4-{2-[4-(4-fluoro-benzoyl)-piperidin-1-yl]-ethyl}-cyclohexyl)-2-((1S,3S)-3-methoxy-cyclohexyl)-acetamide], the pKi in assay [1] is 7.46; in assay [2], 8.15; in assay [3] it was 5.90.

With `CCO[C@H]1CC[C@H](CC(=O)N[C@H]2CC[C@H](CCN3CCC(C(=O)c4ccc(F)cc4)CC3)CC2)CC1` [Example 13, Trans-2-(4-Ethoxy-cyclohexyl)-N-trans (4-{2-[4-(4-fluoro-benzoyl)-piperidin-1-yl]-ethyl}-cyclohexyl)-acetamide], the values for the negative logarithm of the Ki (pKi) in assay [1], in assay [2] and in assay [3] were 7.48, 7.89 and 5.85, respectively.

On to `O=C(C[C@H]1CCC[C@@H](O)C1)N[C@H]1CC[C@H](CCN2CCC(C(=O)c3ccc(F)cc3)CC2)CC1` (racemic) [Example 4, rac-N-trans (4-{2-[4-(4-Fluoro-benzoyl)-piperidin-1-yl]-ethyl}-cyclohexyl)-2-cis (3-hydroxy-cyclohexyl)-acetamide], for which the negative logarithm of the Ki (pKi) in assay [1] is 7.37; in assay [2], 7.85; in assay [3] it was 5.99.

In the case of `COC[C@H]1C[C@H](CC(=O)N[C@H]2CC[C@H](CCN3CCC(C(=O)c4ccc(F)cc4)CC3)CC2)C1` [Example 25, N-trans (4-{2-[4-(4-Fluoro-benzoyl)-piperidin-1-yl]-ethyl}-cyclohexyl)-2-trans (3-methoxymethyl-cyclobutyl)-acetamide], the negative logarithm of the Ki (pKi) in assay [1] was 7.57; in assay [2], 8.05; in assay [3], 5.73.

For the molecule `O=C(CC1CC(CO)C1)N[C@H]1CC[C@H](CCN2CCC(C(=O)c3ccc(F)cc3)CC2)CC1` (mixture of isomers) [Example 19, N-trans (4-{2-[4-(4-Fluoro-benzoyl)-piperidin-1-yl]-ethyl}-cyclohexyl)-2-cis/trans (3-hydroxymethyl-cyclobutyl)-acetamide], the pKi was 7.55 in assay [1], 7.96 in assay [2] and 6.00 in assay [3].

On to `COC[C@H]1CC[C@H](CC(=O)N[C@H]2CC[C@H](CCN3CCC(C(=O)c4ccc(F)cc4)CC3)CC2)CC1` [Example 21, N-trans (4-{2-[4-(4-Fluoro-benzoyl)-piperidin-1-yl]-ethyl}-cyclohexyl)-2-trans (4-methoxymethyl-cyclohexyl)-acetamide], for which the negative-log Ki (pKi) is 7.60 in assay [1], 8.30 in assay [2] and 6.00 in assay [3].

Regarding `O=C(C[C@H]1CC[C@H](O)C1)N[C@H]1CC[C@H](CCN2CCC(C(=O)c3ccc(F)cc3)CC2)CC1` (racemic) [Example 7, rac-N-trans (4-{2-[4-(4-Fluoro-benzoyl)-piperidin-1-yl]-ethyl}-cyclohexyl)-2-trans (3-hydroxy-cyclopentyl)-acetamide], the results for the pKi in assay [1], in assay [2] and in assay [3] were 7.72, 7.80 and 6.09, respectively.

For the molecule `O=C(CC1CCC(OC2CCOC2)CC1)N[C@H]1CC[C@H](CCN2CCC(C(=O)c3ccc(F)cc3)CC2)CC1` (mixture of isomers) [Example 17, rac-N-Trans (4-{2-[4-(4-Fluoro-benzoyl)-piperidin-1-yl]-ethyl}-cyclohexyl)-2-[4-(tetrahydro-furan-3-yloxy)-cyclohexyl]-acetamide], the figures for the pKi in assay [1], in assay [2] and in assay [3] were 7.40, 7.96 and 5.58, respectively.

For the molecule `COCC1CC(CC(=O)N[C@H]2CC[C@H](CCN3CCC(C(=O)c4ccc(F)cc4)CC3)CC2)C1` (mixture of isomers) [Example 20, N-trans(4-{2-[4-(4-Fluoro-benzoyl)-piperidin-1-yl]-ethyl}-cyclohexyl)-2-cis/trans (3-methoxymethyl-cyclobutyl)-acetamide], the pKi was 7.57 in assay [1], 7.92 in assay [2] and 5.87 in assay [3].

Regarding `CC(=O)N[C@H]1CC[C@H](CC(=O)N[C@H]2CC[C@H](CCN3CCC(C(=O)c4ccc(F)cc4)CC3)CC2)CC1` [Example 27, 2-trans (4-Acetylamino-cyclohexyl)-N-trans-(4-{2-[4-(4-fluoro-benzoyl)-piperidin-1-yl]-ethyl}-cyclohexyl)-acetamide], the pKi is 7.36 in assay [1], 7.47 in assay [2] and 5.68 in assay [3].

Take `O=C(CC1CCC(O)CC1)N[C@H]1CC[C@H](CCN2CCC(C(=O)c3ccc(F)cc3)CC2)CC1` (mixture of isomers) [Example 1, N-trans (4-{2-[4-(4-Fluoro-benzoyl)-piperidin-1-yl]-ethyl}-cyclohexyl)-2-cis/trans (4-hydroxy-cyclohexyl)-acetamide]: the negative-log Ki (pKi) in assay [1] was 7.37; in assay [2], 7.89; in assay [3] it was 5.83.

Take `COC[C@H]1C[C@@H](CC(=O)N[C@H]2CC[C@H](CCN3CCC(C(=O)c4ccc(F)cc4)CC3)CC2)C1` [Example 26, N-trans (4-{2-[4-(4-Fluoro-benzoyl)-piperidin-1-yl]-ethyl}-cyclohexyl)-2-cis (3-methoxymethyl-cyclobutyl)-acetamide]: the pKi in assay [1] is 7.59; in assay [2] it was 8.22; in assay [3], 5.69.

One may read the pKi as −log10 of the Ki, conventionally taken in molar units.

For the origin of these results see US8097637B2, “Benzoyl-piperidine derivatives as dual modulators of the 5-HT2A and D3 receptors” (Hoffmann-La Roche Inc., priority 2007, dated 2012).
